Data: patent US20090061515A1, “Methods of inhibiting or suppressing cellular proliferation” (priority 2007, published 2009)

Columns and labels:
Assay type in all cases: cell-based
[1] = test system: human umbilical vein endothelial cells (HUVEC); test: Cell migration after 48 hours exposure, HUVEC (Example 6); settings: 10 mg/ml and 1 mg/ml
Procedure: (§1) Evaluation of the effects of 5,6-dihydroxy-hexan-2-one on human umbilical vein endothelial cells (HUVEC) and Glioblastoma/Astrocytoma cells U87 cellular proliferation and migration during 120 hours following 48 hour exposure to 5,6-dihydroxy-hexan-2-one at concentration of 10 mg/ml, 1 mg/ml, 100 micrograms/ml. Controls were cells not exposed to the agent.
(§2) In order to further explore the effects of this compound, experiments to evaluate the dose-effect response on the antiproliferative effect and on cell migration were conducted on two cell lines, human umbilical vein endothelial cells (HUVEC) and Glioblastoma/Astrocytoma cells (U87), over 120 hours after 48 hours of exposure to the compound.
FIGS. 23(a)-(l) are pictures that visually display the migration over time of human umbilical vein endothelial cells (HUVEC) after 48 hours exposure to various concentrations of 5,6-dihydroxy-hexan-2-one. Specifically, FIGS. 23(a)-(d) represent the control, FIGS. 23(e)-(h) represent 10 mg/ml, and FIGS. 23(i)-(l) represent 1 mg/ml 5,6-dihydroxy-hexan-2-one. FIGS. 23(a), (e), and (i) represent migration after 2 hours; FIGS. 23(b), (f), and (j) represent migration after 14 hours; FIGS. 23(c), (g), and (k) represent migration after 20 hours; and FIGS. […], (h), and (l) represent migration after 48 hours.

[2] = test system: human Glioblastoma/Astrocytoma U87 cells; test: CyQuant cell proliferation after 48 hour exposure, U87 (Example 6); settings: for cell proliferation: 48 hour exposure
Procedure: as §1, §2
A cell proliferation assay available under the trade designation CyQuant from Invitrogen Corporation (Carlsbad, Calif.) determines the density of cells in culture by using a green fluorescent dye which fluoresces when bound to cellular nucleic acids.

[3] = test system: coronary artery smooth muscle cells (CASMC); test: Cell migration into scraped monolayer, CASMC (Example 5); settings: 1 and 10 mg/ml, 48 hours exposure then 72 hours growth
Procedure: In a similar manner, cell migration was explored in vitro by scraping the cell monolayer and culturing the cells in the presence of 5,6-dihydroxy-hexan-2-one at concentrations of 1 mg/ml and 10 mg/ml. FIGS. 20(a)-(l) are pictures that visually display the migration of coronary artery smooth muscle cells (CASMC) (FIGS. 20(a)-(f)) and normal human dermal fibroblast (NHDF) cells (FIGS. 20(g)-(l)) exposed to various concentrations of 5,6-dihydroxy-hexan-2-one after 48 hours exposure, then cultured an additional 72 hours after removal of the 5,6-dihydroxy-hexan-2-one as described in Example 5. Specifically, FIGS. 20(a) and (b) represent the CASMC control at time zero and 72 hours, respectively; FIGS. 20(c) and (d) represent CASMC (10 mg/ml) at time zero and 72 hours, respectively; and FIGS. 20(e) and (f) represent CASMC (1 mg/ml) at time zero and 72 hours, respectively. FIGS. 20(g) and (h) represent the NHDF cell control at time zero and 72 hours, respectively; FIGS. 20(i) and (j) represent NHDF cells (10 mg/ml) at time zero and 72 hours, respectively; and FIGS. 20(k) and (l) represent NHDF cells (1 mg/ml) at time zero and 72 hours, respectively.
Cell migration judged by the ability of cells to repopulate the scraped “acellular” space over time indicated no microscopically identifiable effect by the agent at the concentrations tested. […]

[4] = test system: coronary artery smooth muscle cells (CASMC); test: Cell proliferation and viability assays (CyQuant, CellTiter-Glo, CellTiter 96), CASMC (Example 5); settings: 48 hours
From the text: Multiple assays were used to test a variety of cellular properties expressed after exposure of different cells types to 5,6-dihydroxy-hexan-2-one. A cell proliferation assay available under the trade designation CyQuant from Invitrogen Corporation (Carlsbad, Calif.) determines the density of cells in culture by using a green fluorescent dye which fluoresces when bound to cellular nucleic acids. The amount of nucleic acid present is proportional to the amount of living cells in culture. […]
The amount of ATP present is proportional to the measured amount of a luminescent signal and therefore the amount of viable cells. […] The absorbance read is proportional to the amount of metabolic activity present in the cells.
Normal human dermal fibroblast (NHDF) cells and coronary artery smooth muscle cells (CASMC) in culture were exposed to 5,6-dihydroxy-hexan-2-one at concentrations of 10 microgram/ml, 1 mg/ml, and 10 mg/ml, for 48 hours, after which the cell culture wells were analyzed for cell proliferation and viability. […] FIG. 17 is a graphical representation of fibroblast cell numbers measured after 48 hours exposure to different concentrations of 5,6-dihydroxy-hexan-2-one. FIG. 18 is a graphical representation of smooth muscle cell numbers measured after 48 hours exposure to different concentrations of 5,6-dihydroxy-hexan-2-one. […]

[5] = test system: Normal Human Dermal Fibroblast (NHDF) cells; test: CytoTox 96 LDH release cytotoxicity assay (Example 3)
Procedure: The assay used was a non-radioactive cytotoxicity assay available under the trade designation CytoTox 96 from Promega Corporation (Madison, Wis.), which was designed to determine the cytotoxicity of a substance by quantitatively measuring the presence of lactate dehydrogenase (LDH) in cell culture supernatant. The enzymatic assay utilizes the LDH released in the supernatant in the conversion of a tetrazolium salt substrate into a red formazan product. This resulting product is measured using a standard 96 well plate reader where the absorbance recorded at 490 nanometers is directly proportional to the number of lysed cells. The Normal Human Dermal Fibroblasts were available from Clonetics Corporation (San Diego, Calif.).
The 5,6-dihydroxy-hexan-2-one (1.2 grams) was dissolved in 12 ml of phosphate buffered saline and was filter sterilized through a 0.22 micrometer syringe filter prior to use. The 5,6-dihydroxy-hexan-2-one was further diluted to 10^−1, 10^−2, 10^−3, 10^−4, 10^−5, and 10^−6 using serial dilutions for the evaluation.
NHDF were seeded at 45,000 cells/well in 24 well plate(s). Cells were grown for 72 hours, 48 hours of which was done in the presence of the test chemicals. 24 hours after seeding, 5,6-dihydroxy-hexan-2-one was added to the cell culture plates (2 ml/well). […] Samples were analyzed on the above-described assay as provided in the instructions for use of the assay.

CC(=O)CCC(O)CO (stereo not drawn) [5,6-dihydroxy-hexan-2-one]
cell migration [1]: did not shown differences | cell proliferation ([2]; U87, 10 mg/ml): antiproliferative effects | time after withdrawal at which inhibitory effect was still observed ([2]; U87, 10 mg/ml, after 48 hour exposure): ≥ 120 h | cell proliferation ([2]; U87, lowest concentration evaluated (100 micrograms/ml)): no antiproliferative effects | cell migration [3]: not affected | cell proliferation ([4]; 10 mg/ml): inhibition of cell proliferation | cell proliferation ([4]; other concentrations (10 microgram/ml, 1 mg/ml)): did not show this effect | cytotoxicity (LDH release), in words ([5]; 10^-1 concentration): no significant cytotoxicity | cytotoxicity (LDH release), in words ([5]; various concentrations, 48 hours): no increase in cytotoxicity
